Data set [1] has as its system HeLa. As to the kind of experiment: Photocytotoxicity against human HeLa cells assessed as reduction in cell viability at 1600 nM preincubated for 24 hrs followed by light irradiation at 525 nm for 6 mins by MTT assay relative to control. Type of data set: functional. (In general: Formazan colour is commonly taken as a measure of viable cells.)
Data set [2] can be described thus: Fluorescence property of compound in MeOH assessed as molar extinction coefficient. Type of data set: physicochemical.
Data set [3] relates to HeLa. The data set can be described thus: Antiproliferative activity against human HeLa cells assessed as auger electron mediated reduction in cell viability measured after 6 hrs by MTT assay. Type of data set: functional, cell-based. As to conditions: dose <= 18.5 kBq, tested as the 125I-labelled form.
For data set [4], the system named is HeLa. The data set can be described thus: Photocytotoxicity against human HeLa cells assessed as reduction in cell viability upto 1600 nM measured after 24 hrs under dark condition by MTT assay. Type of data set: functional, cell-based.
A short description of data set [5]: Induction of singlet oxygen production in MeOH assessed as singlet oxygen quantum yield at 410 nm by DPBF based assay. Type of data set: functional.
The test system of data set [6] is HeLa. The data set can be described thus: Induction of DNA damage in human HeLa cells assessed as increase in gamma H2AX foci density in nucleus measured after 2 hrs by immmunofluorescence staining based analysis. Type of data set: functional, cell-based. The conditions noted are these: dose <= 18.5 kBq, tested as the 125I-labelled form.
For data set [7], the system named is HeLa. The data set can be described thus: Photocytotoxicity against human HeLa cells assessed as reduction in cell viability preincubated for 24 hrs followed by light irradiation at 525 nm for 6 mins by MTT assay. The conditions noted are these: for Activity: dose <= 1600.0 nM, time 1446.0 min; for IC50: light or radiation study. Type of data set: functional, cell-based.

Data set [8] is described as follows: Fluorescence property of compound in MeOH assessed as quantum yield by spectroscopic analysis. Type of data set: physicochemical.
For data set [9], the system named is HeLa. The data set can be described thus: Induction of DNA damage in human HeLa cells assessed as increase in gamma H2AX foci in nuclei at 18.5 kBq measured after 2 hrs by immmunofluorescence staining based analysis. The conditions noted are these: tested as the 125I-labelled form. Type of data set: functional, cell-based.
The nature of data set [10]: Emission property of compound in MeOH assessed as maximal wavelength. Type of data set: physicochemical.
The nature of data set [11]: Absorption property of compound in MeOH assessed as maximal wavelength. Type of data set: physicochemical.
Data set [12] relates to HeLa. The data set can be described thus: Antiproliferative activity against human HeLa cells assessed as auger electron mediated reduction in cell viability at 18.5 kBq measured after 6 hrs by MTT assay relative to control. Type of data set: functional.
Data set [13] is described as follows: Absorption property of compound in MeOH assessed as maximal wavelength by spectroscopic analysis. Type of data set: physicochemical.
Data set [14] can be described thus: Fluorescence property of compound in MeOH assessed as molar extinction coefficient by spectroscopic analysis. Type of data set: physicochemical.
Data set [15] is described as follows: Emission property of compound in MeOH assessed as maximal wavelength by spectroscopic analysis. Type of data set: physicochemical.
In data set [16] the test system is HeLa. As to the kind of experiment: Antiproliferative activity against human HeLa cells assessed as reduction in cell viability measured after 6 hrs by MTT assay. Type of data set: functional, cell-based.
A short description of data set [17]: Drug uptake in nucleus of human HeLa cells measured upto 6 hrs. Type of data set: ADME, subcellular.
A short description of data set [18]: Drug uptake in human HeLa cells assessed as increase in intracellular fraction measured upto 6 hrs. Type of data set: ADME, cell-based.
The nature of data set [19]: Induction of singlet oxygen production in MeOH assessed as singlet oxygen quantum yield. Type of data set: functional.
Data set [20] is described as follows: Fluorescence property of compound in toluene assessed as quantum yield. Type of data set: physicochemical.

The source made the active and inactive calls. The rule behind the calls is not given here.

What is called IC50 is the concentration that inhibits the measured activity by half. Take `CC1=C(I)C(C)=[N+]2C1=C(c1ccc(C(=O)NCCCCOc3ccc(-c4nc5ccc(-c6nc7ccc(N8CCN(C)CC8)cc7[nH]6)cc5[nH]4)cc3)cc1)c1c(C)cc(C)n1[B-]2(F)F`: the Activity in the data set with HeLa [1] is 50%; in [2], 22000 M⁻¹ cm⁻¹; in the data set on HeLa [3], “Dose-Dependent Effect”; in data set [5], 0.32; with HeLa [6] it was “Dose-Dependent Effect”; in the data set on HeLa [7], “Dose-Dependent Effect”. Also, the Activity turned out to be 0.06 in [8], 532 nm in data set [10] and 517 nm in data set [11]. In the data set on HeLa [4], the result was inactive. In addition, the 50% inhibitory concentration (IC50) in the data set on HeLa [7] amounted to 702 nM. Moreover, the outcome in the data set with HeLa [9] was Active.
For `CN(C)c1ccc2cc3ccc(N(C)C)cc3[n+](CCCCCNC(=O)c3ccc([125I])cc3)c2c1`, the Activity in the data set with HeLa [12] turned out to be 64%.
On to `CC1=C(I)C(C)=[N+]2C1=C(c1ccc(C(=O)NCCCCOc3ccc(-c4nc5ccc(-c6nc7ccc(N8CCN(C)CC8)cc7[nH]6)cc5[nH]4)cc3)cc1)c1c(C)c(I)c(C)n1[B-]2(F)F`, for which the Activity was 29% with HeLa [1]; “Dose-Dependent Effect” in the data set with HeLa [3]; 533 nm in [13]; 0.41 in [5]; 20600 M⁻¹ cm⁻¹ in data set [14]; “Dose-Dependent Effect” in the data set with HeLa [6]. For the same molecule, the figures for the Activity (in data set [15]; in the data set on HeLa [7]; in [8]) were 552 nm, “Dose-Dependent Effect” and 0.04, respectively. In addition, the result in the data set with HeLa [4] and in the data set with HeLa [16] was inactive. Further, in the data set with HeLa [7], the half-maximal inhibitory concentration (IC50) came to 195 nM. The outcome in the data set with HeLa [9] was Active.
As to `CC1=C([125I])C(C)=[N+]2C1=C(c1ccc(C(=O)NCCCCOc3ccc(-c4nc5ccc(-c6nc7ccc(N8CCN(C)CC8)cc7[nH]6)cc5[nH]4)cc3)cc1)c1c(C)cc(C)n1[B-]2(F)F`, the Activity with HeLa [12] was 60%. The Drug uptake result in [17] and in data set [18] was “Active” in each case.
`CN(C)c1ccc2cc3ccc(N(C)C)cc3[n+](CCCCCNC(=O)c3ccc(I)cc3)c2c1`: in the data set with HeLa [3], the Activity result is “Dose-Dependent Effect”.
Consider `O=C(O)c1c(Cl)c(Cl)c(Cl)c(Cl)c1-c1c2cc(I)c(=O)c(I)c-2oc2c(I)c(O)c(I)cc12`, for which the Activity in [19] was found to be 0.76.
Consider `CC1=C(I)C(C)=[N+]2C1=C(c1ccc(C(=O)ON3C(=O)CCC3=O)cc1)c1c(C)cc(C)n1[B-]2(F)F`, for which, in [20], the Activity came to 0.11.
As to `CC1=C([125I])C(C)=[N+]2C1=C(c1ccc(C(=O)NCCCCOc3ccc(-c4nc5ccc(-c6nc7ccc(N8CCN(C)CC8)cc7[nH]6)cc5[nH]4)cc3)cc1)c1c(C)c(I)c(C)n1[B-]2(F)F`, the Activity in the data set on HeLa [12] was 43%. Moreover, the Drug uptake entry in data set [17] and in data set [18] was “Active” in each case.

These data come from ChEMBL document CHEMBL5390250, “Synthesis and biological evaluation of bi-modal BODIPY-conjugated Hoechst applicable for Auger-electron and photodynamic cancer therapy” (Bioorg Med Chem Lett, 2023).
